The source of these data is ChEMBL document CHEMBL1151046, “Selective cyclooxygenase inhibitors: Novel 4-spiro 1,2-diarylcyclopentenes are potent and orally active cox-2 inhibitors” (Bioorg Med Chem Lett, 1995).

By logP is commonly meant a log measure of how a compound divides between an organic and an aqueous phase. A low value points to a more hydrophilic compound. Usually IC50 stands for the point on the concentration scale where inhibition reaches its midpoint.

The species entered for data set [1] is Rattus norvegicus. Put plainly: animal or person. It counts as functional. Conditions: po.
The next data set in a line: physchem. Conditions: octanol/water.
The species entered for data set [2] is Rattus norvegicus. It counts as functional, Stomach.
The target of data set [3] is Prostaglandin G/H synthase 1 (Homo sapiens, UniProt P23219).
Data set [4] is filed under the species Rattus norvegicus. As to the kind of experiment: animal or person. As to conditions: po, read-out: Inhibition.

Prostaglandin G/H synthase 1, sequence (P23219 whole entry): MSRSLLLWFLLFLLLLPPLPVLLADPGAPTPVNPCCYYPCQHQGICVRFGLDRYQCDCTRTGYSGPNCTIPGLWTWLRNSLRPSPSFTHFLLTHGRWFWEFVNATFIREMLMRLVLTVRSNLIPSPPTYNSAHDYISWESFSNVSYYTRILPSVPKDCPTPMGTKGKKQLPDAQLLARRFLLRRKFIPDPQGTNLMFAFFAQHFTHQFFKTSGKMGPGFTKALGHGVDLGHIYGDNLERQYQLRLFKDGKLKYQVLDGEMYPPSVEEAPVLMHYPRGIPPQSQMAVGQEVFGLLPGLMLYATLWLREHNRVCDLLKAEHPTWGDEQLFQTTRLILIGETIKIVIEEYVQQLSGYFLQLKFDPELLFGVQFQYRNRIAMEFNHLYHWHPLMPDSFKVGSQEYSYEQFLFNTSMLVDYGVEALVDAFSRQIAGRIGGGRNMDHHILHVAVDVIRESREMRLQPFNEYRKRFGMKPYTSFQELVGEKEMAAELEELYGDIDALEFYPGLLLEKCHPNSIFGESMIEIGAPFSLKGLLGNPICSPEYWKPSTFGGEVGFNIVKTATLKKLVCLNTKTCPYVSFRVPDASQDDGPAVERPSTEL

Turning to `NS(=O)(=O)c1ccc(C2=C(c3ccc(F)cc3)CC3(CCC3)C2)cc1`, the inhibition in vivo at 30 mg/kg in the data set filed under Rattus norvegicus [1] came out at 37%. In the data set “physchem”, the log partition coefficient (logP) amounted to 4.1.

In the data set listed under Rattus norvegicus [1], `CS(=O)(=O)c1ccc(C2=C(c3ccc(F)cc3)CC3(CCC3)C2)cc1` displayed an inhibition in vivo at 30 mg/kg of 23%. The same compound registered a lipophilicity (logP) in “physchem” of 4.9.

`CS(=O)(=O)Nc1ccc([N+](=O)[O-])cc1OC1CCCCC1` [NS-398] yielded an inhibition in vivo at 30 mg/kg in the data set listed under Rattus norvegicus [1] of 60%.

The compound `NS(=O)(=O)c1ccc(C2=C(c3ccc(F)cc3)CC3(CC3)C2)cc1` registered an inhibition in vivo at 30 mg/kg in the data set filed under Rattus norvegicus [1] of 60%. For the same compound, the Gastric lesions in the data set listed under Rattus norvegicus [2] came to 10. In the data set “physchem”, this compound came in with a logP of 4.

`COc1ccc2c(c1)c(CC(=O)O)c(C)n2C(=O)c1ccc(Cl)cc1` [INDOMETHACIN] came in with an inhibition in vivo at 30 mg/kg in the data set filed under Rattus norvegicus [1] of 66%.

Compound `CS(=O)(=O)c1ccc(C2=C(c3ccc(F)cc3)CC3(CC3)C2)cc1` gave a half-inhibitory concentration (IC50) in data set [3] of 5.4 µM. The same compound yielded an inhibition in vivo at 30 mg/kg in the data set filed under Rattus norvegicus [1] of 38%. This compound also had a log partition coefficient (logP) in “physchem” of 4.5.

`CC1(C)CC(c2ccc(F)cc2)=C(c2ccc(S(C)(=O)=O)cc2)C1`: the inhibition in vivo at 30 mg/kg in the data set listed under Rattus norvegicus [4] was 50%.

The compound `CS(=O)(=O)c1ccc(C2=C(c3ccc(F)cc3)CC3(CCCC3)C2)cc1` yielded a lipophilicity (logP) in the data set “physchem” of 5.4.

For the compound `CS(=O)(=O)c1ccc(C2=C(c3ccc(F)cc3)CC3(CCCCC3)C2)cc1`, the half-maximal inhibitory concentration (IC50) in data set [3] was more than 100 µM.
